Reference: ChEMBL document CHEMBL1150000, “Purine 2, 3-acyclonucleosides: Improved synthesis and antiparasitic actimity” (Bioorg Med Chem Lett, 1995)
Activity calls are given as the source filed them. The rule behind the calls is not given here.

How the values were obtained:
Leishmania donovani = experiment: In vitro inhibitory activity against Leishmania donovani; Inactive; format: functional, organism-based
Trypanosoma brucei [1] = experiment: In vitro inhibitory activity against Trypanosoma brucei; Inactive; format: functional, organism-based
Trypanosoma brucei [2] = experiment: In vitro inhibitory activity against Trypanosoma brucei; format: functional, organism-based
Trypanosoma cruzi = experiment: In vitro inhibitory activity against growth of Trypanosoma cruzi at a concentration of 30 uM; 20-40%; format: functional; settings: read-out: GI

| SMILES | IC50 (Trypanosoma brucei [1]) [µM] | IC50 (Trypanosoma brucei [2]) [µM] | Activity (Leishmania donovani) | inhibition of growth at 30 µM (Trypanosoma cruzi) [%] |
| --- | --- | --- | --- | --- |
| Nc1ncnc2c1ncn2C(CO)OC(CO)CSCCO (stereo unspecified) | ≥ 100 | – | inactive | – |
| OCC(CO)OC(CO)n1cnc2c(O)ncnc21 (stereo unspecified) | ≥ 100 | – | inactive | – |
| Nc1ncnc2c1ncn2C(CO)OC(CO)CCl (stereo unspecified) | – | – | inactive | 40 |
| CCC(CO)OC(CO)n1cnc2c(N)ncnc21 (stereo unspecified) | – | – | inactive | 40 |

More lines, main results first:

| IC50 (Trypanosoma brucei [1]) [µM] | IC50 (Trypanosoma brucei [2]) [µM] | SMILES | Activity (Leishmania donovani) | inhibition of growth at 30 µM (Trypanosoma cruzi) [%] |
| --- | --- | --- | --- | --- |
| ≥ 100 | – | Nc1ncnc2c1ncn2C(CO)OC(CO)CO (stereo unspecified) | inactive | – |
| – | 5.3 | CC(=O)OCCSCC(COC(C)=O)OC(COC(C)=O)n1cnc2c(N)ncnc21 (stereo unspecified) | inactive | – |
| – | 5.4 | CC(=O)OCC(COC(C)=O)OC(COC(C)=O)n1cnc2c(O)ncnc21 (stereo unspecified) | inactive | – |
| – | 7 | CC(=O)OCC(CO)OC(COC(C)=O)n1cnc2c(N)ncnc21 (stereo unspecified) | inactive | – |
